US9452981B2, “Pyroglutamic acid esters with improved biodegradability” (Clariant Produkte (Deutschland) GmbH, priority 2005, dated 2016)

Test: Kinetic gas hydrate inhibition test in stirred steel autoclave
Conditions: 5000 ppm based on the water phase; for Tind (time from attainment of 4° C. until the first gas absorption): distilled water and gas 20:80, 50 bar natural gas; for Tagg (time until the torque rises): distilled water and gas 20:80, 50 bar natural gas, 4° C.
Protocol: To investigate the inhibiting action of the polyesters, a stirred steel autoclave with temperature control, pressure and torque sensor with capacity 450 ml was used. For investigations of kinetic inhibition, the autoclave was filled with distilled water and gas in a volume ratio of 20:80; for investigations of agglomerate inhibition, condensate was additionally added. Finally, 50 bar of natural gas were injected. […] At first, a pressure decrease corresponding to the thermal compression of the gas is observed. When the formation of gas hydrate nuclei occurs during the cooling time, the pressure measured falls, and a rise in the torque measured and a slight increase, in the temperature are observed. Without inhibitors, further growth and increasing agglomeration of the hydrate nuclei lead rapidly to a further rise in the torque. When the mixture is heated, the gas hydrates decompose, so that the starting state of the experimental series is attained. The measure used for the inhibiting action of the polymer is the time from the attainment of the minimum temperature of 4° C. until the first gas absorption (Tind) or the time until the torque rises (Tagg). Long induction times or agglomeration times indicate an effect as a kinetic inhibitor. The torque measured in the autoclave serves, in contrast, as a parameter for the agglomeration of the hydrate crystals. […] Composition of the natural gas used: methane 84.8%, ethane 9.2%, propane 2.6%, butane 0.9%, carbon dioxide 1.6%, nitrogen 0.9%. The comparative substance used was a commercially available gas hydrate inhibitor based on polyvinylpyrrolidone. The dosage in all tests was 5000 ppm based on the water phase.

| SMILES | Tind (time from attainment of 4° C. until the first gas absorption) | Tagg (time until the torque rises) |
| --- | --- | --- |
| O=C1CC[C@@H](C(=O)OCCOCCOCCOC(=O)[C@@H]2CCC(=O)N2)N1 [Example 2, triethylene glycol di(pyroglutamate)] | 7.3 h | 7.4 h |
| O=C1CC[C@@H](C(=O)OCCOCCOCCOC(=O)[C@@H]2CCC(=O)N2)N1 [Example 1, triethylene glycol di(pyroglutamate)] | 6.9 h | 7.2 h |
